Results taken from US11980630B2 (priority 2017, dated 2024).
“Also recorded” adds a separate entry of the source. Read-outs that look alike come from different tables or passages of the source.

Tests used:
EBOV (Makona) = assay: microbe, parasite or virus in culture; format: cell-based, Ebola virus; conditions: for EC50: Zaire ebolavirus, HeLa
SUDV (Gulu) = assay: microbe, parasite or virus in culture; format: cell-based, Sudan virus; conditions: for EC50: Sudan ebolavirus, HeLa
MARV (Ci67) = assay: organism not typed; format: cell-based, Marburg virus; conditions: for EC50: HeLa
[1] = system: recombinant reporter EBOV; assay: microbe, parasite or virus in culture; format: cell-based, Ebola virus; conditions: for EC50: Zaire ebolavirus
Lassa Virus = assay: microbe, parasite or virus in culture; format: cell-based; conditions: Mammarenavirus lassaense, Huh-7, read-out: Lassa Virus EC50
Rift Valley Fever = assay: microbe, parasite or virus in culture; format: cell-based; conditions: Huh-7, read-out: Rift Valley Fever EC50
HeLa cells = conditions: human
Huh7 cells = conditions: human
[2] = biological target: SARS-CoV nsp14 (N7 MTase) (Severe acute respiratory syndrome coronavirus, UniProt P0C6X7); format: biochemical
Zika virus NS5 MTase = biological target: T1, Zika virus NS5 MTase (Zika virus, UniProt A0A024B7W1); assay: biochemical
T1 construct: Zika virus NS5 MTase: 500 nM

Dengue virus NS5 MTase = biological target: T2, Dengue virus NS5 MTase (Dengue virus type 2, UniProt P29990); assay: biochemical
T2 construct: Dengue virus NS5 MTase: 500 nM
T2 sequence (P29990 2493-2755 limits assumed): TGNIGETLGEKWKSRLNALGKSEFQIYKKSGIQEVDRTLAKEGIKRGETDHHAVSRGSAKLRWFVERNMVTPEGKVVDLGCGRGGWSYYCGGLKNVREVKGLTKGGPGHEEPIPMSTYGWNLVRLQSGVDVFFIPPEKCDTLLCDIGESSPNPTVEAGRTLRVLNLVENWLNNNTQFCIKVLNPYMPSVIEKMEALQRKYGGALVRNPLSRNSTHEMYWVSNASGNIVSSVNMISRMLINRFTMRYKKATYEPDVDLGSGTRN

hMPV MTase = biological target: T3, hMPV MTase (Human metapneumovirus, UniProt Q6WB93); assay: biochemical; format: biochemical
T3 construct: hMPV MTase: 1 μM

[3] = biological target: human N7 MTase (hN7 or RNMT) (Homo sapiens, UniProt O43148); assay: biochemical
RSV MTase = biological target: T4, RSV MTase (Human respiratory syncytial virus A, UniProt P28887); assay: biochemical; format: biochemical
T4 construct: RSV MTase: 4 μM

[4] = biological target: MERS polymerase complex (12HC/7HC8) (Middle East respiratory syndrome-related coronavirus, UniProt K9N7C7); format: biochemical
[5] = biological target: SARS polymerase complex (12HC/7HC8) (Severe acute respiratory syndrome coronavirus, UniProt P0C6X7); format: biochemical
in vitro = conditions: human
EBOV = conditions: cited from earlier work
MARV = conditions: cited from earlier work
[6] = read-out: EBOV EC50 (50% inhibition of virus-induced CPE)
[7] = read-out: SUDV EC50 (50% inhibition of virus-induced CPE)
[8] = read-out: MARV EC50 (50% inhibition of virus-induced CPE)
[9] = Huh-7, read-out: EC50 against EBOV in Huh7 cells

T1 sequence (A0A024B7W1 2521-2785 limits assumed): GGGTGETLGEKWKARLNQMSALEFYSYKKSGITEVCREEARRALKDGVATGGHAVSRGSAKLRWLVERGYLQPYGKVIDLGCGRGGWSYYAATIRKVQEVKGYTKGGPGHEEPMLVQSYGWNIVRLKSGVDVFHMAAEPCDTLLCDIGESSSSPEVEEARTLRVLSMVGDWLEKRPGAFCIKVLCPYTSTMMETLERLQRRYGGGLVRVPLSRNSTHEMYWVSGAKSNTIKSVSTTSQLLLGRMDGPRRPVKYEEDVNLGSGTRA
T3 sequence (Q6WB93 1599-2005 limits assumed): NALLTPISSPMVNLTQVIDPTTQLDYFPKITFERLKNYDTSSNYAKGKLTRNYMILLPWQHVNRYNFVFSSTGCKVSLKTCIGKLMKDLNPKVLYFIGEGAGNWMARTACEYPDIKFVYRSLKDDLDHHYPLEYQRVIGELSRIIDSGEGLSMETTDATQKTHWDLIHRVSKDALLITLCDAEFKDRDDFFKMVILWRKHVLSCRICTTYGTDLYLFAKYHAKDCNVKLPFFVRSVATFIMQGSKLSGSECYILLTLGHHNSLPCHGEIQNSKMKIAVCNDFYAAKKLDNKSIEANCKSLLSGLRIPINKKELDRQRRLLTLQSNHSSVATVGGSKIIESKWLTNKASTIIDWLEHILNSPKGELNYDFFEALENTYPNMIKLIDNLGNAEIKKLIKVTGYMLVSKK
MERS polymerase complex (12HC/7HC8), sequence (K9N7C7 4378-5310 limits assumed): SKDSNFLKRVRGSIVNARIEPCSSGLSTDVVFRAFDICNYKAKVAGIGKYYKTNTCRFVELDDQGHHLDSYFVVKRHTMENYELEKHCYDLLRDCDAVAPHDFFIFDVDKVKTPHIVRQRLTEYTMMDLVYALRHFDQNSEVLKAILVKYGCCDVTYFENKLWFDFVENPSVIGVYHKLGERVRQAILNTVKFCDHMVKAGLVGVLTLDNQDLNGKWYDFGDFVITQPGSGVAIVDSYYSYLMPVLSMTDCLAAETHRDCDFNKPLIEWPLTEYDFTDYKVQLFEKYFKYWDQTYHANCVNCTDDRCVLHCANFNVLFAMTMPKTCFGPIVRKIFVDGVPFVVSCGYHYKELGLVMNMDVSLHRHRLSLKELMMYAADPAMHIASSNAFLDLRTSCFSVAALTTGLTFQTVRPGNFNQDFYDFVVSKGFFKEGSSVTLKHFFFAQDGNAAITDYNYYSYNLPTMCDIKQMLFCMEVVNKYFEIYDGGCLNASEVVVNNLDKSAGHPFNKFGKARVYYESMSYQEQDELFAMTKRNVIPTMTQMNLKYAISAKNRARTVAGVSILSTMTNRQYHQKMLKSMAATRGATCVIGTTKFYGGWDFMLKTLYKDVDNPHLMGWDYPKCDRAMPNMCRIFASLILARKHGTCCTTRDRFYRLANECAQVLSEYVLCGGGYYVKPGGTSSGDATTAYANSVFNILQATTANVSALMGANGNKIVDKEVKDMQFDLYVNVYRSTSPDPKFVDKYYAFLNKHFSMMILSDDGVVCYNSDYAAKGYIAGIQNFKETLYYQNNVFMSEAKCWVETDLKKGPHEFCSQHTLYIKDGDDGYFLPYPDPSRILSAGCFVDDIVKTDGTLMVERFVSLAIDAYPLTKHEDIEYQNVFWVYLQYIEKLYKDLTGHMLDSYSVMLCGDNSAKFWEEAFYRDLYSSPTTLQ
MERS polymerase complex (12HC/7HC8), sequence (K9N7C7 3846-3928 partner limits assumed): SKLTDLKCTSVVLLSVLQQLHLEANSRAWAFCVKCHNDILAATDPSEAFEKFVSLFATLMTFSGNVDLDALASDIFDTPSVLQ
MERS polymerase complex (12HC/7HC8), sequence (K9N7C7 3929-4127 partner limits assumed): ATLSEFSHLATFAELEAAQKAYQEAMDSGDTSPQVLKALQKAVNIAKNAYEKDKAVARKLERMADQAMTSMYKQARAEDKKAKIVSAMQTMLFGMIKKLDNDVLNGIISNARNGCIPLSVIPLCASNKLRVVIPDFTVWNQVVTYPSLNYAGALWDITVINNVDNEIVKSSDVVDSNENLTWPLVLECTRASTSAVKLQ
T4 sequence (P28887 1820-2008 limits assumed): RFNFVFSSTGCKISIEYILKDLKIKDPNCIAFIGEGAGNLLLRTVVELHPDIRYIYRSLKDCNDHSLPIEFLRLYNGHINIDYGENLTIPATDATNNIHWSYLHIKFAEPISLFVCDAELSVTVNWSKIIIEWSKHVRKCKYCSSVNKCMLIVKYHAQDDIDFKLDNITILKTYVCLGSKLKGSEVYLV
human N7 MTase (hN7 or RNMT), sequence (O43148 whole entry): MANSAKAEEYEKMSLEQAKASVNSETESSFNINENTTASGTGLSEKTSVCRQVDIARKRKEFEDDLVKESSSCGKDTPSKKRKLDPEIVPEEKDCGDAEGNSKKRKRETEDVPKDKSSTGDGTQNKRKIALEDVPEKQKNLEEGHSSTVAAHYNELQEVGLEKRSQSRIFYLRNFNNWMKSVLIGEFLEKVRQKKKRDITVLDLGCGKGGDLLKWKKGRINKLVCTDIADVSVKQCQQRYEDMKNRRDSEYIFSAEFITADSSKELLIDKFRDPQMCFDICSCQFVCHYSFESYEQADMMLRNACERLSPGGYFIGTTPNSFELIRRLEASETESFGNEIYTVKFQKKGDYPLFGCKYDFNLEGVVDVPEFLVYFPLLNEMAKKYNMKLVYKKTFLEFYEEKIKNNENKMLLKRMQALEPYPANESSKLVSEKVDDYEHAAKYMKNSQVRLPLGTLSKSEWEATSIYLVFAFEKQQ

Compound	Antiviral activity against EBOV (EBOV (Makona))	EC50 (EBOV (Makona); [6])	Antiviral activity against SUDV (SUDV (Gulu))	EC50 (SUDV (Gulu); [7])	Antiviral activity against MARV (MARV (Ci67))	EC50 (MARV (Ci67); [8])	Antiviral activity against recombinant reporter EBOV [1]	EC50 ([1]; Huh-7, read-out: EBOV EC50)	EC50 [1, 9]	EC50 (Lassa Virus)	EC50 (Rift Valley Fever)	CC50 (HeLa cells)	CC50 (Huh7 cells)	other results
COc1nc(N)ncc1-c1cn(COCCO)cn1 [Compound 1]	no detectable activity	> 100 µM	no detectable activity	> 100 µM	no detectable activity	> 100 µM	exhibited antiviral activity	2.2 ± 0.3 µM	2.2 ± 0.3 µM	> 50 µM	> 50 µM	> 100 µM	> 50 µM	
COc1nc(N)ncc1-c1cn(COCCOP(=O)(O)OP(=O)(O)OP(=O)(O)O)cn1 [Compound 2MR04]														Inhibition of SARS-nsp14 MTase activity [2]: inhibits; Inhibition of Zika virus MTase activity (Zika virus NS5 MTase): inhibits; IC50 (Zika virus NS5 MTase; IC50 Zika NS5-MTase): ~22 µM; IC50 (Zika virus NS5 MTase; IC50 in another testing (FIG. 15, effect on Zika Virus)): ~17 µM; IC50 (Dengue virus NS5 MTase): ~22 µM; Inhibition of Dengue virus NS5 MTase activity (Dengue virus NS5 MTase): inhibits; IC50 (hMPV MTase): ~31 µM; Inhibition of hMPV MTase activity (hMPV MTase): strongly inhibiting; also recorded: inhibits; IC50 [3]: ~49 µM; Inhibition of RNMT (RNA Guanine-7 Methyltransferase) [3]: not inhibited; IC50 (RSV MTase): ~18 µM; Inhibition of RSV MTase activity (RSV MTase): strongly inhibiting; Reduction of product / oligonucleotide synthesis by MERS polymerase [4]: as effective as the 3′dGTP inhibitor; also recorded: as effective, not more effective, in reduction of oligonucleotide synthesis; Reduction of product / oligonucleotide synthesis by SARS polymerase [5]: comparable to the other inhibitors
COc1nc(N)ncc1-c1cn(COCCOC(C)=O)cn1 [Compound 2]		44 ± 13 µM		20 ± 10 µM		70 ± 27 µM						> 100 µM		CC50 (in vitro): > 100 µM
CCC(CC)OC(=O)[C@@H](C)N[P@](=O)(OCCOCn1cnc(-c2cnc(N)nc2OC)c1)Oc1ccccc1 [Compound 3]	Activity against all three viruses was observed	29 ± 9 µM	best activity against SUDV	7 ± 2 µM	Activity against all three viruses was observed	62 ± 13 µM	active against EBOV at a similar concentration; also recorded: exhibited antiviral activity	27.2 ± 2.2 µM	27.2 ± 2.2 µM	> 50 µM	> 50 µM	> 100 µM	> 50 µM	EC50 (EBOV (Makona); read-out: EC50 EBOV in Hela cells (FIGS. 3-5)): 29.1 µM; EC50 (EBOV (Makona); read-out: EC50 against EBOV in HeLa cells): 29 ± 9 µM; EC50 (SUDV (Gulu); read-out: EC50 SUDV in Hela cells (FIGS. 3-5)): 6.85 µM; EC50 (SUDV (Gulu); read-out: EC50 against SUDV in HeLa cells): 7 ± 2 µM; EC50 (MARV (Ci67); read-out: EC50 MARV in Hela cells (FIGS. 3-5)): 62.3 µM; Potency of McGuigan prodrug relative to compound 1 [1]: ~10 fold
CCC(CC)COC(=O)[C@H](C)N[P@](=O)(OC[C@H]1O[C@@](C#N)(c2ccc3c(N)ncnn23)[C@H](O)[C@@H]1O)Oc1ccccc1 [GS-5734]														Activity against EBOV (literature, words) (EBOV): very potent activity; Activity against MARV (literature, words) (MARV): very potent activity
